From the OligoGym collection
After the bases stand the sugars from the 5' end (letter, count) and the backbone: PS all phosphorothioate, else s phosphorothioate and o phosphodiester by linkage. Methylation of C is not given here. e = 2'-O-(2-methoxyethyl) (MOE); l = locked nucleic acid (LNA); k = constrained ethyl (cEt); d = 2'-deoxy (DNA)

Assays:
APOL1 = settings: ASO
SNHG14 = settings: ASO, Human Neuronal Cell

Sequence	target mRNA inhibition (SNHG14; 7.5 µM)	further results
AACACATCATTGGGTT (sugars kkkddddkekeddddd, PS)	–	target mRNA inhibition (APOL1; A431, 2 µM): 21%
AACATTGAAACACCAG (sugars k4 d9 k3, PS)	–	target mRNA inhibition (APOL1; A431, 0.0625 µM): 35%; target mRNA inhibition (APOL1; A431, 0.25 µM): 71%; target mRNA inhibition (APOL1; A431, 1 µM): 89%
AACGCAATGCTGACTT (sugars kkkddddkekeddddd, PS)	–	target mRNA inhibition (APOL1; A431, 2 µM): 83%
TTGATTCAATTCCCTTA (sugars lddlldddddddlldll, PS)	66%	–
TTGATTCAATTCCCTTA (sugars lldlddddddddlddll, PS)	63%	–
TTGTCTCTAATCCTAT (sugars l2 d10 l4, PS)	–	target mRNA inhibition (SNHG14; 0.2 µM): 38%; target mRNA inhibition (SNHG14; 1 µM): 54%
TTTACACTTAATTATACTTC (sugars lldddldddddddlllldll, PS)	51%	–
TTTACACTTAATTATACTTC (sugars lldllddddddddldlllll, PS)	29%	–
TTTACACTTAATTATACTTC (sugars lllddldddddddllldlll, PS)	22%	–
TTTACACTTAATTATACTTC (sugars llldlddddddddlddllll, PS)	55%	–
TTTACATTGACACCTA (sugars l2 d10 l4, PS)	–	target mRNA inhibition (SNHG14; 0.2 µM): 20%; target mRNA inhibition (SNHG14; 1 µM): 31%
TTTATACCTTTCTTTAAC (sugars l2 d12 l4, PS)	–	target mRNA inhibition (SNHG14; 0.2 µM): 4%; target mRNA inhibition (SNHG14; 1 µM): 21%
TTTATCAATATCTTCTCAC (sugars lldldlddddddllddlll, PS)	58%	–
TTTATCAATATCTTCTCAC (sugars lldlllddddddlddddll, PS)	65%	–
TTTATCAATATCTTCTCACT (sugars lddldldddddddddddlll, PS)	57%	–
TTTATCTCATGACCAC (sugars l2 d10 l4, PS)	–	target mRNA inhibition (SNHG14; 0.2 µM): 53%; target mRNA inhibition (SNHG14; 1 µM): 63%
TTTATTTCCATTTATTTTC (sugars ldldlddddddddlldlll, PS)	53%	–
TTTATTTCCATTTATTTTC (sugars lllddldddddddllldll, PS)	51%	–

Sequence	target mRNA inhibition (SNHG14; 7.5 µM)	further results
TTTATTTCCATTTATTTTCA (sugars lddddldddddddldlddll, PS)	46%	–
TTTATTTCCATTTATTTTCA (sugars ldddlldddddddddlldll, PS)	65%	–
TTTATTTCCATTTATTTTCA (sugars ldldddddddddddlddlll, PS)	60%	–
TTTATTTCCATTTATTTTCA (sugars lldldlddddddddldldll, PS)	63%	–
TTTCAGCTTTTAACCAGAGT (sugars l2 d15 l3, PS)	67%	–
TTTCCATTTATTTCCATTTA (sugars l2 d2 l1 d12 l3, PS)	62%	–
TTTCCATTTATTTCCATTTA (sugars lddlddlddddddddlddll, PS)	61%	–
TTTCCTATATTCTCTTA (sugars l4 d11 l2, PS)	–	target mRNA inhibition (SNHG14; 0.2 µM): 56%; target mRNA inhibition (SNHG14; 1 µM): 64%
TTTCTTACTATCTTCA (sugars l4 d10 l2, PS)	–	target mRNA inhibition (SNHG14; 0.2 µM): 53%; target mRNA inhibition (SNHG14; 1 µM): 61%
TTTGACATTCCATCTCC (sugars l2 d12 l3, PS)	–	target mRNA inhibition (SNHG14; 0.2 µM): 38%; target mRNA inhibition (SNHG14; 1 µM): 55%
TTTTAACCAGAGTGGCA (sugars l3 d11 l3, PS)	56%	–
TTTTATACCTTTCTTTAACC (sugars l1 d15 l1 d1 l2, PS)	24%	–
TTTTATACCTTTCTTTAACC (sugars ldddlddddddddlddddll, PS)	-9%	–
TTTTTATACCTTTCTTTAAC (sugars llldlddddddddldldlll, PS)	62%	–
TTTTTTCTTACTATCTTCAA (sugars ldddddldddddddllddll, PS)	43%	–
TTTTTTTCTTACTATCTTCA (sugars l1 d14 l1 d2 l2, PS)	17%	–
TTTTTTTCTTACTATCTTCA (sugars l2 d3 l1 d12 l2, PS)	14%	–
TTTTTTTCTTACTATCTTCA (sugars lldldddddddddlddddll, PS)	49%	–
